# Assay results from ChEMBL document CHEMBL1201862, “PubChem BioAssay data set” (2004).
#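 Assay format: 96-well plates, 48-hour exposure. The concentration for 50% growth inhibition is given as GI50.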 Activity calls are given as the source filed them. No stated cut-off is given here; in the data, active = GI50 up to about 1.1 µM and inactive = higher.
# Tests used:
# Assay in all cases: NCI tumour cell line growth inhibition, 48 h
# [1] = tested on: 786-0
# [2] = tested on: SF-295
# [3] = tested on: HCT-116
# [4] = tested on: MDA-MB-435
# [5] = tested on: UACC-257
# [6] = tested on: NCI-H522
# [7] = tested on: Malme-3M
# [8] = tested on: A549
# [9] = tested on: MCF7
# [10] = tested on: IGROV-1
# [11] = tested on: T47D
# [12] = tested on: LOX IMVI
# [13] = tested on: SW-620
# [14] = tested on: M14
# [15] = tested on: HOP-92
# [16] = tested on: MDA-MB-231
# [17] = tested on: UACC-62
# [18] = tested on: HCT-15
# [19] = tested on: HCC 2998
# [20] = tested on: DU-145
# [21] = tested on: SF-539
# [22] = tested on: A498
# [23] = tested on: OVCAR-4
# [24] = tested on: COLO 205
# [25] = tested on: MDA-N
# [26] = tested on: RXF 393
# [27] = tested on: NCI-H226
# [28] = tested on: SNB-19
# [29] = tested on: KM12
# [30] = tested on: EKVX
# [31] = tested on: CAKI-1
# [32] = tested on: SNB-75
# [33] = tested on: SR
# [34] = tested on: NCI-H23
# [35] = tested on: MOLT-4
# [36] = tested on: SK-OV-3
# [37] = tested on: ACHN
# [38] = tested on: RPMI-8226
# [39] = tested on: HT-29
# [40] = tested on: Hs-578T
# [41] = tested on: NCI/ADR-RES
# [42] = tested on: SK-MEL-5
# [43] = tested on: CCRF-CEM
# [44] = tested on: OVCAR-8
# [45] = tested on: U-251
# [46] = tested on: K562
# [47] = tested on: BT-549
# [48] = tested on: SK-MEL-2
# [49] = tested on: NCI-H460
# [50] = tested on: OVCAR-3
# [51] = tested on: SN12C
# [52] = tested on: HOP-62
# [53] = tested on: OVCAR-5
# [54] = tested on: TK-10
# [55] = tested on: PC-3
# [56] = tested on: SK-MEL-28
# [57] = tested on: UO-31
# [58] = tested on: SF-268
# [59] = tested on: HL-60
smiles,measurement,setting,value
COC(=O)c1cc2c3c(cc(NCCN)c2[nH]1)N(C(=O)c1cc2cc(OC)c(OC)c(OC)c2[nH]1)CC3CCl (centres undefined),GI50,[1],42.3 nM (active)
same,GI50,[2],228 nM (active)
same,GI50,[3],19.8 nM (active)
same,GI50,[4],152 nM (active)
same,GI50,[5],214 nM (active)
same,GI50,[6],< 10 nM (active)
same,GI50,[7],37.7 nM (active)
same,GI50,[8],145 nM (active)
same,GI50,[9],14 nM (active)
same,GI50,[10],12 nM (active)
same,GI50,[11],31 nM (active)
same,GI50,[12],18.6 nM (active)
same,GI50,[13],36.9 nM (active)
same,GI50,[14],118 nM (active)
same,GI50,[15],70.3 nM (active)
same,GI50,[16],63.8 nM (active)
same,GI50,[17],59.4 nM (active)
same,GI50,[18],573 nM
same,GI50,[19],98.2 nM (active)
same,GI50,[20],22.1 nM (active)
same,GI50,[21],39.2 nM (active)
same,GI50,[22],131 nM (active)
same,GI50,[23],92.5 nM (active)
same,GI50,[24],55.9 nM (active)
same,GI50,[25],81.1 nM (active)
same,GI50,[26],30.1 nM (active)
same,GI50,[27],17.7 nM (active)
same,GI50,[28],18.3 nM (active)
same,GI50,[29],205 nM (active)
same,GI50,[30],158 nM (active)
same,GI50,[31],144 nM (active)
same,GI50,[32],38.2 nM (active)
same,GI50,[33],15.3 nM (active)
same,GI50,[34],65.9 nM (active)
same,GI50,[35],25.1 nM (active)
same,GI50,[36],273 nM (active)
same,GI50,[37],88.9 nM (active)
same,GI50,[38],250 nM (active)
same,GI50,[39],27.7 nM (active)
same,GI50,[40],49 nM (active)
same,GI50,[41],358 nM (active)
same,GI50,[42],31.3 nM (active)
same,GI50,[43],17.4 nM (active)
same,GI50,[44],109 nM (active)
same,GI50,[45],14.4 nM (active)
same,GI50,[46],24.7 nM (active)
same,GI50,[47],229 nM (active)
same,GI50,[48],62.8 nM (active)
same,GI50,[49],50.2 nM (active)
same,GI50,[50],72.8 nM (active)
same,GI50,[51],98.2 nM (active)
same,GI50,[52],170 nM (active)
same,GI50,[53],39.3 nM (active)
same,GI50,[54],366 nM (active)
same,GI50,[55],26.9 nM (active)
same,GI50,[56],109 nM (active)
same,GI50,[57],192 nM (active)
same,GI50,[58],21.3 nM (active)
OCC(Cn1cncn1)(c1ccc(F)cc1F)n1cncn1 (centres undefined),GI50,[1],66100 nM (inactive)
same,GI50,[2],> 100000 nM (inactive)
same,GI50,[3],> 100000 nM (inactive)
same,GI50,[4],> 100000 nM (inactive)
same,GI50,[5],> 100000 nM (inactive)
same,GI50,[6],> 100000 nM (inactive)
same,GI50,[7],> 100000 nM (inactive)
same,GI50,[8],> 100000 nM (inactive)
same,GI50,[9],> 100000 nM (inactive)
same,GI50,[10],> 100000 nM (inactive)
same,GI50,[11],> 100000 nM (inactive)
same,GI50,[12],> 100000 nM (inactive)
same,GI50,[13],> 100000 nM (inactive)
same,GI50,[14],> 100000 nM (inactive)
same,GI50,[16],> 100000 nM (inactive)
same,GI50,[17],> 100000 nM (inactive)
same,GI50,[18],> 100000 nM
same,GI50,[19],> 100000 nM (inactive)
same,GI50,[20],> 100000 nM (inactive)
same,GI50,[21],> 100000 nM (inactive)
same,GI50,[22],38500 nM (inactive)
same,GI50,[24],> 100000 nM (inactive)
same,GI50,[25],> 100000 nM (inactive)
same,GI50,[26],> 100000 nM (inactive)
same,GI50,[27],> 100000 nM (inactive)
same,GI50,[28],> 100000 nM (inactive)
same,GI50,[29],> 100000 nM (inactive)
same,GI50,[31],> 100000 nM (inactive)
same,GI50,[32],> 100000 nM (inactive)
same,GI50,[33],> 100000 nM (inactive)
same,GI50,[59],> 100000 nM (inactive)
same,GI50,[34],> 100000 nM (inactive)
same,GI50,[35],> 100000 nM (inactive)
same,GI50,[36],> 100000 nM (inactive)
same,GI50,[37],> 100000 nM (inactive)
same,GI50,[38],> 100000 nM (inactive)
same,GI50,[39],> 100000 nM (inactive)
same,GI50,[40],> 100000 nM (inactive)
same,GI50,[41],> 100000 nM (inactive)
same,GI50,[42],> 100000 nM (inactive)
same,GI50,[43],> 100000 nM (inactive)
same,GI50,[44],> 100000 nM (inactive)
same,GI50,[45],> 100000 nM (inactive)
same,GI50,[46],> 100000 nM (inactive)
same,GI50,[47],> 100000 nM (inactive)
same,GI50,[48],> 100000 nM (inactive)
same,GI50,[49],> 100000 nM (inactive)
same,GI50,[50],> 100000 nM (inactive)
same,GI50,[51],> 100000 nM (inactive)
same,GI50,[52],> 100000 nM (inactive)
same,GI50,[53],> 100000 nM (inactive)
same,GI50,[54],> 100000 nM (inactive)
same,GI50,[55],> 100000 nM (inactive)
same,GI50,[56],> 100000 nM (inactive)
same,GI50,[57],> 100000 nM (inactive)
same,GI50,[58],> 100000 nM (inactive)
